Data set [1] concerns NO production in LPS-activated RAW 264.7 cells. Description: Nitric oxide production assay in LPS-activated RAW 264.7 cells. Type of data set: cell-based. The settings on record: Mus musculus, read-out: IC50 (50% inhibitory concentration), LPS-induced NO production.
Data set [2] in a line: Cytotoxicity (CC50) in macrophages. Type of data set: cell-based. Particulars: mouse. An excerpt:
Table 3 Inhibitory effect of 9, 22, 23 and 25 on LSP-induced NO production in macrophages | column: CC50^c (µM)

In data set [3] the target is hemagglutinin (HA) of influenza A/WSN/33/2009 (H1N1) (Influenza A virus, UniProt P03454). Particulars: chicken RBCs without virus.
Sequence of hemagglutinin (HA) of influenza A/WSN/33/2009 (H1N1) (P03454 18-342 limits assumed): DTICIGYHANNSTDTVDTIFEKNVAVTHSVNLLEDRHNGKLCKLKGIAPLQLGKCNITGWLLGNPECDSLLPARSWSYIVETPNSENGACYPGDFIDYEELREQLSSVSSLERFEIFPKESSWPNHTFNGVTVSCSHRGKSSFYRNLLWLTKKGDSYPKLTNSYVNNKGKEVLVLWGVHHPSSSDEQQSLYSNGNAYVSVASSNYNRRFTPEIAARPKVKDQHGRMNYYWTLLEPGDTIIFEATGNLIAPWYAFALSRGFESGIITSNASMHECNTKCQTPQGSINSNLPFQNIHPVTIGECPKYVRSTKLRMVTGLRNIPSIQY
Sequence of hemagglutinin (HA) of influenza A/WSN/33/2009 (H1N1) (P03454 344-565 partner limits assumed): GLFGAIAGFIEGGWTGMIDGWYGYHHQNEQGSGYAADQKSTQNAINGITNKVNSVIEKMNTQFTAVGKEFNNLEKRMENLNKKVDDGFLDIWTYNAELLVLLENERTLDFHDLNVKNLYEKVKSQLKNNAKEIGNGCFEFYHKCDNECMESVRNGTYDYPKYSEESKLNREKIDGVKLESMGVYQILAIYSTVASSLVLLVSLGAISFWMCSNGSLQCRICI
For data set [4], the system named is A/WSN/33/2009 (H1N1) virus. Put plainly: microbe, parasite or virus in culture. The data set is classed as cell-based. Particulars: Influenza A virus, MDCK, 48 h; read-out: IC50 against A/WSN/33/2009 (H1N1) virus.
For data set [5], the system named is A/WSN/33/2009 (H1N1) virus in MDCK cells. Type of data set: cell-based, influenza A virus. The settings on record: 20 at 50 μM, versus DMSO group.
Data set [6] deals with nucleoprotein expression in influenza virus-infected MDCK cells. The data set is classed as cell-based, influenza A virus. Particulars: 20 at 50 μM, 2, 5 and 8 h.
Where [7] appears, read: RAW264.7, LPS (1 μg/ml) activated RAW 264.7 cells, 24 h.
The mark [8] stands for this setting: macrophages, read-out: CC50 (50% cytotoxic concentration).

Where two headings read alike, the source gives them in different places.

As for `O=c1cc(-c2ccc(O)c(O)c2)oc2cc(O)cc(O)c12` [Compound 9, luteolin], the IC50 in data set [1] (setting [7]) came out at 22.8 µM. This molecule also showed a CC50 in data set [2] greater than 50 µM.
For the molecule `COC(=O)[C@H]1c2c(/C=C/C(=O)O[C@H](Cc3ccc(O)c(O)c3)C(=O)O)ccc(O)c2O[C@@H]1c1ccc(O)c(O)c1` [Compound 20, methyl lithospermate], in data set [3], the “effect of the compound alone on red blood cells” value is recorded as “no effect on red blood cells”. Moreover, in data set [4], the IC50 came out at 20.5 µM. Moreover, the “virus population / nucleoprotein distribution in infected cells (fluorescence microscopy)” value in data set [5] was “influenza virus could be inhibited”. Also, the “nucleoprotein protein expression (western blot)” value in data set [6] was “dramatically reduce the nucleoprotein protein expression”.
Take `COC(=O)[C@H]1Oc2ccc(/C=C/C(=O)O/C=C\c3ccc(O)c(O)c3)cc2O[C@H]1c1ccc(O)c(O)c1` [Compound 22, hyprhombins A]: the IC50 in data set [1] (setting [7]) stood at 20.5 µM. The CC50 in data set [2] (setting [8]) is greater than 50 µM.
As for `COC(=O)C[C@@H](OC(=O)/C=C/c1ccc(O)c(O)c1)c1ccc(O)c(O)c1` [Compound 23, 3-(3ʹʹʹ,4ʹʹʹ-dihydroxyphenyl)-acrylic acid 1-(3ʹʹ,4ʹʹ-dihydroxyphenyl)-2-methoxycarbonylethyl ester], the IC50 in data set [1] (setting [7]) was 27.7 µM. Besides, the CC50 in data set [2] (setting [8]) is greater than 50 µM.
The like results for `COC(=O)[C@H](Cc1ccc(O)c(O)c1)OC(=O)/C=C/c1ccc(O)c2oc(-c3ccc(O)c(O)c3)cc12` [Compound 25, methyl salvianol acid C] were, in that order, 30.1 µM and greater than 50 µM.
Turning to `[H]/N=C(/NC)NCCC[C@H](N)C(=O)O` [L-NMMA, reference compound], the IC50 in data set [1] (RAW264.7, 24 h) came out at 21.8 µM. In data set [2] (setting [8]), the CC50 was greater than 50 µM.
With `CCOC(=O)C1=C[C@@H](OC(CC)CC)[C@H](NC(C)=O)[C@@H](N)C1` [oseltamivir, reference compound], the IC50 in data set [4] stood at 6.85 µM.

(Values after article PMC11063020, “Antiviral and anti-inflammatory activities of chemical constituents from twigs of Mosla chinensis Maxim” (Natural Products and Bioprospecting, 2024).)
